# pEC50, pIC50: −log10 of the molar value.
# Tests used:
# [1] = target: human Werner helicase (WRN, amino acids 517-1235 with L1074F point mutation) (Homo sapiens (Human), UniProt Q14191, L1074F); experiment: WRN (BV08) ADP-Glo assay; type: biochemical; settings: human WRN (aa 517-1235, L1074F), read-out: ADP-Glo_hWRN_IC50
# In short: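 ADP-Glo luminescence read after 60 min, 25 °C reaction of 0.15 nM WRN (517-1235, L1074F, Sf9-expressed, tag removed) with 0.1 nM DNA duplex and 5 μM ATP, following 15 min compound preincubation; 20 mM Bicine pH 7.5, 1% DMSO. IC50 from 3- or 4-parameter fit of % inhibition.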
# [2] = test system: p21 induction in HCT 116 cells; experiment: p21 induction in cells (In-Cell Western, p21/GAPDH ratio); type: cell-based; settings: Homo sapiens, 24 h compound incubation, read-out: p21_EC50
# In short: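 EC50 values come from nonlinear fits of percent activation, defined by the 800/700 nm p21-to-GAPDH ratio scaled between DMSO (low) and internal WRN inhibitor (high) controls. In-Cell Western read after 24 h compound exposure of HCT 116 cells at 37° C. Duplicate 11-point series, 2-fold steps, usually starting at 10 μM.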
# Sequence of human Werner helicase (WRN, amino acids 517-1235 with L1074F point mutation) (Q14191 other isoform, or with tags, fused parts or gaps L1074F (already in the parent)): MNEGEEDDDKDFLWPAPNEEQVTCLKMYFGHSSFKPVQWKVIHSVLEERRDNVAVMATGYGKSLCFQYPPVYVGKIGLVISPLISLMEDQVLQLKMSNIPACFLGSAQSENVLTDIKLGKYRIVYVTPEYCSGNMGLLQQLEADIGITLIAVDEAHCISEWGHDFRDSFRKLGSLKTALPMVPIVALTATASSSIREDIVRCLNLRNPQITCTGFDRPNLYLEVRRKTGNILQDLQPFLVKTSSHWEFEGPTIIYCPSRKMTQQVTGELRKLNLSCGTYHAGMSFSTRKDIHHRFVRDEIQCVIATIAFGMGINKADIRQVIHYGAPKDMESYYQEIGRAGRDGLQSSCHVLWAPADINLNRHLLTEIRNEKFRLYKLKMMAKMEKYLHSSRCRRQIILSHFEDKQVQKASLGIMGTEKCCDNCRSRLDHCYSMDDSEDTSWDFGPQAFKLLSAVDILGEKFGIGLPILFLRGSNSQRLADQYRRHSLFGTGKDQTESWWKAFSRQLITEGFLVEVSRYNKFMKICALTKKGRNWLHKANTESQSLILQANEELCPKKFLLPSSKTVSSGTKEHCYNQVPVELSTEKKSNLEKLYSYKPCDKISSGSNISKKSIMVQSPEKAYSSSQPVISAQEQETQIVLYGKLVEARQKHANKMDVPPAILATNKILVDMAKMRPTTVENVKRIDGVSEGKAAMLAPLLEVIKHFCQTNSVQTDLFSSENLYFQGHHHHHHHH
pIC50 [1],pEC50 [2],Structure (SMILES)
7.30 to 8.30,5.70 to 6.30,"CCc1c(N2CCN(C(=O)c3cnn(C)c3)[C@H]3CC[C@@H]32)c(=O)c2nn(C3=CCOCC3)nc2n1CC(=O)NC12CC(C(C)C)(C1)C2 [Compound I-206, 2-[2-(3,6-dihydro-2H-pyran-4-yl)-5-ethyl-6-[(1S,6S)-5-(1-methyl-1H-pyrazole-4-carbonyl)-2,5-diazabicyclo[4.2.0]octan-2-yl]-7-oxo-2H,4H,7H-[1,2,3]triazolo[4,5-b]pyridin-4-yl]-N-[3-(propan-2-yl)bicyclo[1.1.1]pentan-1-yl]acetamide]"
7.30 to 8.30,5.70 to 6.30,"CCc1c(N2CCN(C(=O)c3cccnc3OC(F)F)[C@H]3CC[C@@H]32)c(=O)c2nn(C3=CCOCC3)nc2n1CC(=O)NC12CC(C(C)C)(C1)C2 [Compound I-207, 2-{6-[(1S,6S)-5-[2-(difluoromethoxy)pyridine-3-carbonyl]-2,5-diazabicyclo[4.2.0]octan-2-yl]-2-(3,6-dihydro-2H-pyran-4-yl)-5-ethyl-7-oxo-2H,4H,7H-[1,2,3]triazolo[4,5-b]pyridin-4-yl}-N-[3-(propan-2-yl)bicyclo[1.1.1]pentan-1-yl]acetamide]"
7.30 to 8.30,5.70 to 6.30,"CCc1c(N2CCN(C(=O)c3ccncc3OC)[C@H]3CC[C@@H]32)c(=O)c2nn(C3=CCOCC3)nc2n1CC(=O)NC12CC(C(C)C)(C1)C2 [Compound I-208, 2-[2-(3,6-dihydro-2H-pyran-4-yl)-5-ethyl-6-[(1S,6S)-5-(3-methoxypyridine-4-carbonyl)-2,5-diazabicyclo[4.2.0]octan-2-yl]-7-oxo-2H,4H,7H-[1,2,3]triazolo[4,5-b]pyridin-4-yl]-N-[3-(propan-2-yl)bicyclo[1.1.1]pentan-1-yl]acetamide]"
7.30 to 8.30,5.70 to 6.30,"CCc1c(N2CCN(C(=O)c3cn(C)nc3OC)[C@H]3CC[C@@H]32)c(=O)c2nn(C3=CCOCC3)nc2n1CC(=O)NC12CC(C(C)C)(C1)C2 [Compound I-209, 2-[2-(3,6-dihydro-2H-pyran-4-yl)-5-ethyl-6-[(1S,6S)-5-(3-methoxy-1-methyl-1H-pyrazole-4-carbonyl)-2,5-diazabicyclo[4.2.0]octan-2-yl]-7-oxo-2H,4H,7H-[1,2,3]triazolo[4,5-b]pyridin-4-yl]-N-[3-(propan-2-yl)bicyclo[1.1.1]pentan-1-yl]acetamide]"
7.30 to 8.30,5.70 to 6.30,"CCc1c(N2CCN(C(=O)c3cnn(C)c3OC)[C@H]3CC[C@@H]32)c(=O)c2nn(C3=CCOCC3)nc2n1CC(=O)NC12CC(C(C)C)(C1)C2 [Compound I-210, 2-[2-(3,6-dihydro-2H-pyran-4-yl)-5-ethyl-6-[(1S,6S)-5-(5-methoxy-1-methyl-1H-pyrazole-4-carbonyl)-2,5-diazabicyclo[4.2.0]octan-2-yl]-7-oxo-2H,4H,7H-[1,2,3]triazolo[4,5-b]pyridin-4-yl]-N-[3-(propan-2-yl)bicyclo[1.1.1]pentan-1-yl]acetamide]"
≥ 8.30,≥ 6.30,"CCc1c(N2CCN(C(=O)c3cccnc3OC)[C@H]3CC[C@@H]32)c(=O)c2nn(C3=CCOCC3)nc2n1CC(=O)Nc1ccc(C(F)F)cc1F [Compound I-211, N-[4-(difluoromethyl)-2-fluorophenyl]-2-[2-(3,6-dihydro-2H-pyran-4-yl)-5-ethyl-6-[(1S,6S)-5-(2-methoxypyridine-3-carbonyl)-2,5-diazabicyclo[4.2.0]octan-2-yl]-7-oxo-2H,4H,7H-[1,2,3]triazolo[4,5-b]pyridin-4-yl]acetamide]"
7.30 to 8.30,5.30 to 5.70,"CCc1c(N2CCN(C(=O)c3c(OC)ncc(Cl)c3O)[C@H]3CC[C@@H]32)c(=O)c2nn(C3=CCOCC3)nc2n1CC(=O)NC12CC(C3CC3)(C1)C2 [Compound I-213, 2-{6-[(1S,6S)-5-(5-chloro-4-hydroxy-2-methoxypyridine-3-carbonyl)-2,5-diazabicyclo[4.2.0]octan-2-yl]-2-(3,6-dihydro-2H-pyran-4-yl)-5-ethyl-7-oxo-2H,4H,7H-[1,2,3]triazolo[4,5-b]pyridin-4-yl}-N-{3-cyclopropylbicyclo[1.1.1]pentan-1-yl}acetamide]"
7.30 to 8.30,< 5.30,"CCc1c(N2CCN(C(=O)c3c(OC)ccc[n+]3[O-])CC2)c(=O)c2nn(C3=CCOCC3)nc2n1CC(=O)Nc1ccc(C(F)(F)F)cc1Cl [Compound I-214, 2-{4-[4-({[2-chloro-4-(trifluoromethyl)phenyl]carbamoyl}methyl)-2-(3,6-dihydro-2H-pyran-4-yl)-5-ethyl-7-oxo-2H,4H,7H-[1,2,3]triazolo[4,5-b]pyridin-6-yl]piperazine-1-carbonyl}-3-methoxypyridin-1-ium-1-olate]"
